Patent publication US20230183216A1, “PYRIDIZIN-3(2H)-ONE DERIVATIVES” (Gilead Sciences, Inc., priority 2021, published 2023)

What was measured:
[1] = test system: STAT1 (phosphorylated at Tyr701) in NCI-H1373 cells; experiment: Phospho-STAT1 (Tyr701) LANCE Ultra TR-FRET Detection Assay; format: cell-based; settings: Homo sapiens, 48 hours, induction of pSTAT1, normalized to 10 uM positive control and DMSO, 4-parameter fit, read-out: NH1373 pSTAT1 EC50
Procedure, shortened: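 Endogenous STAT1 Tyr701 phosphorylation induced by compound was measured after seeding 30,000 cells/well onto compound-spotted plates and incubating 48 h at 37 °C, 5% CO2. Lysates were incubated with a sandwich antibody pair overnight at room temperature, and TR-FRET emission was read at 665 and 620 nm.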

PARP7 = biological target: T1, PARP7 (Homo sapiens, UniProt Q7Z3E1); experiment: biochemical;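 further: MSD light signal quantifying PARP7 captured by a plate-immobilized probe, read after 1.5 h equilibration plus 1.5 h with SULFO-TAG anti-GST antibody at room temperature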
T1 sequence (Q7Z3E1 1-657): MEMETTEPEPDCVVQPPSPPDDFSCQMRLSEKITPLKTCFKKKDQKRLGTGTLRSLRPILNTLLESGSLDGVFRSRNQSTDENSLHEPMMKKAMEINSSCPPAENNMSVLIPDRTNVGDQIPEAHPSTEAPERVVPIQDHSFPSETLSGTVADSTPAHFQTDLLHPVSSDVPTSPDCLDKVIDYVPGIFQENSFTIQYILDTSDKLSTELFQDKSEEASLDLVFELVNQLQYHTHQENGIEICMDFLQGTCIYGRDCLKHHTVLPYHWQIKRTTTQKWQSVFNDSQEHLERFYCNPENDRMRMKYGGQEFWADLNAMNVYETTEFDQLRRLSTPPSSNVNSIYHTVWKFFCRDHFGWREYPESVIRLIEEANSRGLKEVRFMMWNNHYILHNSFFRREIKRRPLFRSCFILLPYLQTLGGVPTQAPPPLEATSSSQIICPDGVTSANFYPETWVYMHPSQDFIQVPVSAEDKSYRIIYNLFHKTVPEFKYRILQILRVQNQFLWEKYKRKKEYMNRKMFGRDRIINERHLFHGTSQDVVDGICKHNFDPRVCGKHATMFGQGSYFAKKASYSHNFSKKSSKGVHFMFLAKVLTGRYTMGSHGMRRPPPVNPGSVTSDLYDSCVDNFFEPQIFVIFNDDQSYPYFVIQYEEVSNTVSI
Description: Probe Displacement Assay for PARP7 Displacement of a biotinylated probe (RBN011147; Wigle et al., Cell Chemical Biology, 2020, pp. 877-887) from the PARP7 NAD+-binding site was measured in vitro using a Mesoscale Discovery electrochemiluminescent assay. […] Next, 10 μl of 10 nM PARP7 protein incubated for 1 hour at room temperature with a dose response curve of each test compound in a Greiner LDV polypropylene plate (#781201) is added to the MSD plate containing the immobilized probe. The interaction is allowed to reach equilibrium for 1.5 hours, and then 10 ul of SULFO-TAG labeled anti-GST antibody (Cat #R32AA-1) is added to each well and allowed to incubate for an additional 1.5 hours at room temperature. Finally, 10 μl of MSD read buffer T (4×, Cat. #R92C-1) is added to each well using a Bravo liquid handler to prevent air bubbles in the wells, and the plates are subsequently read in an MSD instrument. Light intensity is then measured to quantify the amount of PARP7 bound to the immobilized probe on the plate.

| SMILES | IC50 (PARP7) [µM] | EC50 [1] [µM] |
| --- | --- | --- |
| O=C(CNc1cc(C(F)(F)F)c(=O)[nH]n1)N1CCN(c2ncc(C(F)(F)F)cn2)CC1 [Example 16, 6-((2-oxo-2-(4-(5-(trifluoromethyl)pyrimidin-2-yl)piperazin-1-yl)ethyl)amino)-4-(trifluoromethyl)pyridazin-3(2H)-one] | 0.00114 | 0.171 |
| O=C(CC1(CNc2cc(C(F)(F)F)c(=O)[nH]n2)CC1)N1CCN(c2ncc(C(F)(F)F)cn2)CC1 [Example 12, 6-(((1-(2-oxo-2-(4-(5-(trifluoromethyl)pyrimidin-2-yl)piperazin-1-yl)ethyl)cyclopropyl)methyl)amino)-4-(trifluoromethyl)pyridazin-3(2H)-one] | 0.000364 | 0.201 |
| O=C(CCCCNc1cc(C(F)(F)F)c(=O)[nH]n1)N1CCN(c2ncc(C(F)(F)F)cn2)CC1 [Example 23, 6-((5-oxo-5-(4-(5-(trifluoromethyl)pyrimidin-2-yl)piperazin-1-yl)pentyl)amino)-4-(trifluoromethyl)pyridazin-3(2H)-one] | 0.000521 | 0.532 |
| O=C(c1cccc(Nc2cc(C(F)(F)F)c(=O)[nH]n2)c1)N1CCN(c2ncc(C(F)(F)F)cn2)CC1 [Example 18, 4-(trifluoromethyl)-6-((3-(4-(5-(trifluoromethyl)pyrimidin-2-yl)piperazine-1-carbonyl)phenyl)amino)pyridazin-3(2H)-one] | 0.0327 | ≥ 10 |
| CC(CCCC(=O)N1CCN(c2ncc(C(F)(F)F)cn2)CC1)c1cc(C(F)(F)F)c(=O)[nH]n1 (stereo not drawn) [Example 8, 6-(6-oxo-6-(4-(5-(trifluoromethyl)pyrimidin-2-yl)piperazin-1-yl)hexan-2-yl)-4-(trifluoromethyl)pyridazin-3(2H)-one] | 0.00139 | 0.708 |
| O=C(OCCNc1cc(C(F)(F)F)c(=O)[nH]n1)N1CCN(c2ncc(C(F)(F)F)cn2)CC1 [Example 20, 2-((6-oxo-5-(trifluoromethyl)-1,6-dihydropyridazin-3-yl)amino)ethyl4-(5-(trifluoromethyl)pyrimidin-2-yl)piperazine-1-carboxylate] | 0.00176 | ≥ 10 |
| O=c1[nH]nc(NCCCS(=O)(=O)N2CCN(c3ncc(C(F)(F)F)cn3)CC2)cc1C(F)(F)F [Example 21, 4-(trifluoromethyl)-6-((3-((4-(5-(trifluoromethyl)pyrimidin-2-yl)piperazin-1-yl)sulfonyl)propyl)amino)pyridazin-3(2H)-one] | 0.0186 | ≥ 10 |
| O=C([C@@H]1C[C@@H]1CNc1cc(C(F)(F)F)c(=O)[nH]n1)N1CCN(c2ncc(C(F)(F)F)cn2)CC1 (racemic) [Example 24, Cis-(+)-4-(trifluoromethyl)-6-(((2-(4-(5-(trifluoromethyl)pyrimidin-2-yl)piperazine-1-carbonyl)cyclopropyl)methyl)amino)pyridazin-3(2H)-one] | 0.00102 | 2.94 |
| O=C(CC[C@@H]1CCCN1c1cc(C(F)(F)F)c(=O)[nH]n1)N1CCN(c2ncc(C(F)(F)F)cn2)CC1 [Example 27, (S)-6-(2-(3-oxo-3-(4-(5-(trifluoromethyl)pyrimidin-2-yl)piperazin-1-yl)propyl)pyrrolidin-1-yl)-4-(trifluoromethyl)pyridazin-3(2H)-one] | 0.000212 | 0.00931 |
| O=C(CCNc1cc(C(F)(F)F)c(=O)[nH]n1)N1CCN(c2ncc(C(F)(F)F)cn2)CC1 [Example 17, 6-((3-oxo-3-(4-(5-(trifluoromethyl)pyrimidin-2-yl)piperazin-1-yl)propyl)amino)-4-(trifluoromethyl)pyridazin-3(2H)-one] | 0.0121 | 0.973 |

Now from value to molecule, other results behind:

| IC50 (PARP7) [µM] | SMILES | EC50 [1] [µM] |
| --- | --- | --- |
| 0.00034 | O=C(CCCNc1cc(C(F)(F)F)c(=O)[nH]n1)N1CCN(c2ccc(C(F)(F)F)cn2)CC1 [Example 53, 3-[[4-oxo-4-[4-[5-(trifluoromethyl)-2-pyridyl]piperazin-1-yl]butyl]amino]-5-(trifluoromethyl)-1H-pyridazin-6-one] | 0.218 |
| 0.0306 | CN(c1cccc(C(=O)N2CCN(c3ncc(C(F)(F)F)cn3)CC2)c1)c1cc(C(F)(F)F)c(=O)[nH]n1 [Example 29, 6-(methyl(3-(4-(5-(trifluoromethyl)pyrimidin-2-yl)piperazine-1-carbonyl)phenyl)amino)-4-(trifluoromethyl)pyridazin-3(2H)-one] | ≥ 10 |
| 0.000339 | O=C([C@@H]1CCN1c1cc(C(F)(F)F)c(=O)[nH]n1)N1CCN(c2ncc(C(F)(F)F)cn2)CC1 [Example 55, 5-(trifluoromethyl)-3-[(2S)-2-[4-[5-(trifluoromethyl)pyrimidin-2-yl]piperazine-1-carbonyl]azetidin-1-yl]-1H-pyridazin-6-one] | 0.282 |
| 0.00179 | O=C(CCNCc1cc(C(F)(F)F)c(=O)[nH]n1)N1CCN(c2ncc(C(F)(F)F)cn2)CC1 [Example 73, 6-(((3-oxo-3-(4-(5-(trifluoromethyl)pyrimidin-2-yl)piperazin-1-yl)propyl)amino)methyl)-4-(trifluoromethyl)pyridazin-3(2H)-one] | 2.03 |
| 0.000497 | O=C(N1CCN(c2ncc(C(F)(F)F)cn2)CC1)C(F)(F)CCNc1cc(C(F)(F)F)c(=O)[nH]n1 [Example 72, 3-[[3,3-difluoro-4-oxo-4-[4-[5-(trifluoromethyl)pyrimidin-2-yl]piperazin-1-yl]butyl]amino]-5-(trifluoromethyl)-1H-pyridazin-6-one] | 0.206 |
